# Test results as given in US9220771B2, “Peptide for use in the treatment of breast cancer and/or bone metastases” (MERCK PATENT GMBH, priority 2010, dated 2015).
# Test system: MDA-MB-231 breast cancer bone metastases
# Experiment: Experimental breast cancer bone metastases in nude rats: volumes of osteolytic lesions and soft tissue components by VCT and MRI
# Type: in vivo, nude rats (RNU strain)
# Details: for mean relative volume of soft tissue components (STC), increase compared to initial value at day 30 / mean relative volume of osteolytic lesions (OL), increase compared to initial value at day 30: cilengitide 75 mg/kg i.p. five times per week from day 30; for mean relative volume of soft tissue components (STC), increase compared to initial value at day 30: MRI
# Protocol: For this purpose, nude rats bearing established breast cancer bone metastases are treated with cilengitide, a small molecule inhibitor of αvβ3 and αvβ5 integrins (75 mg/kg, five days per week; n=12 rats) and compared to vehicle treated control rats (n=12). In a longitudinal study, conventional magnetic resonance imaging (MRI) and flat panel volumetric computed tomography (VCT) are used to assess the volume of the soft tissue tumor and osteolysis, respectively, and dynamic contrastenhanced (DCE-) MRI is performed to determine functional parameters of the tumor vasculature reflecting blood volume and blood vessel permeability.
# Nude rats (RNU strain) are obtained from Harlan-Winkelmann GmbH (Borchen, Germany) at the age of six weeks and housed in a specific pathogen-free environment in a mini barrier system of the central animal facility. Animals are kept under controlled conditions (21±2° C. room temperature, 60% humidity, 12 h light-dark rhythm) and offered autoclaved food and water ad libitum. Sub-confluent MDAMB- 231 cells are harvested using 0.05% Trypsin-EDTA (Gibco®; Invitrogen, Karlsruhe, Germany) counted on a Neubauer's chamber and resuspended in RPMI-1640 to a final concentration of 10^5 cells in 200 μl. Rats are anesthetized using a mixture of nitrous oxide (1 l/min), oxygen (0.5 l/min) and isoflurane (1.5 vol. %). Arterial branches of the right hind leg are dissected and 10^5 cells injected into the superficial epigastric artery as described previously.^28 Bone metastases established and are observed exclusively in the femur, tibia and fibula of the right hind leg. 30 days after cancer cell transplantation, rats (n=24) are randomly divided into two groups, one group receiving the cyclic RGD-peptide inhibitor of αvβ3/αvβ5 integrins (cilengitide, EMD 121974^14, 17, 29; Merck, Darmstadt, Germany) intraperitoneally five times per week in isotonic saline (75 mg/kg; n=12 rats) and the other, sham-treated group, serving as a control (n=12 rats). The observation period of all animals is 55 days and no rat in the study dies ahead of schedule.
# After the inoculation of cancer cells each rat is imaged at days 30, 35, 45 and 55 using (i) a flat-panel equipped volumetric computed tomograph (Volume CT, Siemens, Germany) and (ii) a 1.5T clinical magnetic resonance scanner (Symphony, Siemens, Erlangen, Germany) equipped with a home-built receive-transmit coil (cylindrical volume resonator with an inner diameter of 83 mm and a usable length of 120 mm). Prior to in vivo imaging with VCT and MRI, rats aree anesthetized with nitrous oxide, oxygen and isoflurane as described above.
# VCT imaging is obtained using the following parameters: tube voltage 80 kV, tube current 50 mA, scan time 51 s, rotation speed 10 s, frames per second 120, matrix 512×512, and slice thickness 0.2 mm. Image reconstructions are performed using a modified FDK (Feldkamp Davis Kress) cone beam reconstruction algorithm (kernel H80a; Afra, Erlangen, Germany).
# T2-weighted imaging is performed using a turbo spin echo sequence (orientation axial, TR 3240 ms, TE 81 ms, matrix 152×256, FOV 90×53.4 mm^2, slice thickness 1.5 mm, 3 averages, scan time 3 min 40 s). For dynamic contrast-enhanced MRI, a saturation recovery turbo flash sequence through the largest diameter of the tumor (orientation axial, TR 373 ms, TE 1.86 ms, matrix 192×144, FOV 130×97.5 mm, slice thickness 5 mm, measurements 512, averages 1, scan time 6 min 55 s) is used. After 20 s baseline, 0.1 mmol/kg Gd-DTPA (Magnevist; Bayer Schering Pharma, Berlin, Germany) is intravenously infused for a time period of 10 s.
# Unenhanced VCT images and MRI-acquired T2-weighted images are analyzed using the Medical Imaging Interaction Toolkit (MITK, Heidelberg, Germany) to determine volumes of osteolytic lesions and soft tissue components, respectively. […]
compound,measurement,setting,value
"CC(C)[C@H]1C(=O)N[C@@H](CCCN=C(N)N)C(=O)NCC(=O)N[C@@H](CC(=O)O)C(=O)N[C@H](Cc2ccccc2)C(=O)N1C [Cilengitide, cyclo-(Arg-Gly-Asp-DPhe-NMeVal)]","mean relative volume of soft tissue components (STC), increase compared to initial value at day 30",day 35,2.2 fold
same,"mean relative volume of osteolytic lesions (OL), increase compared to initial value at day 30","day 35, VCT",1.5 fold
same,"mean relative volume of soft tissue components (STC), increase compared to initial value at day 30","day 45, p<0.05 vs control",4.9 fold
same,"mean relative volume of osteolytic lesions (OL), increase compared to initial value at day 30","day 45, VCT, p<0.05 vs control",2.4 fold
same,"mean relative volume of soft tissue components (STC), increase compared to initial value at day 30","day 55, p<0.01 vs control",6.3 fold
same,"mean relative volume of osteolytic lesions (OL), increase compared to initial value at day 30","day 55, VCT, p<0.01 vs control",3.5 fold
same,rats showing new bone formation in the osteolytic lesion,"treatment group (three of 12 rats), cilengitide 75 mg/kg, VCT, not seen in controls",25%
